Results taken from patent publication US9409884B2 (Rigel Pharmaceuticals, Inc., priority 2012, dated 2016).

target: AMPK; test: AMPK activation, enzyme-linked immunosorbent assay; assay type: biochemical; details: Table 9, compounds of Table 2
How it was run: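 AMPK activation by test compounds was measured by enzyme-linked immunosorbent assay.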

Compound | EC50 [nM]
NC(=O)c1ccc(CN2CCC(NC(=O)c3ccc4[nH]c5c(c4c3)CN(Cc3ccc(C(N)=O)cc3)CC5)CC2)cc1 [Compound 2-49, 2-(4-carbamoylbenzyl)-N-(1-(4-carbamoylbenzyl)piperidin-4-yl)-2,3,4,5-tetrahydro-1H-pyrido[4,3-b]indole-8-carboxamide] | > 100000
O=C(NC1CCN(Cc2ccncc2)CC1)c1ccc2[nH]c3c(c2c1)CN(Cc1ccc(C(F)(F)F)cc1)CC3 [Compound 2-50, N-(1-(pyridin-4-ylmethyl)piperidin-4-yl)-2-(4-(trifluoromethyl)benzyl)-2,3,4,5-tetrahydro-1H-pyrido[4,3-b]indole-8-carboxamide] | < 500
O=C(NC1CCN(C(=O)c2ccncc2)CC1)c1ccc2[nH]c3c(c2c1)CN(Cc1ccc(C(F)(F)F)cc1)CC3 [Compound 2-51, N-(1-isonicotinoylpiperidin-4-yl)-2-(4-(trifluoromethyl)benzyl)-2,3,4,5-tetrahydro-1H-pyrido[4,3-b]indole-8-carboxamide] | 500 to 1000
NC(=O)c1ccc(CN2CCC(NC(=O)c3ccc4[nH]c5c(c4c3)CN(Cc3ccc(C(F)(F)F)cc3)CC5)CC2)cc1 [Compound 2-52, N-(1-(4-carbamoylbenzyl)piperidin-4-yl)-2-(4-(trifluoromethyl)benzyl)-2,3,4,5-tetrahydro-1H-pyrido[4,3-b]indole-8-carboxamide] | 1000 to 5000
Cn1cnc(CN2CCC(NC(=O)c3ccc4[nH]c5c(c4c3)CN(Cc3ccc(C(F)(F)F)cc3)CC5)CC2)c1 [Compound 2-53, N-(1-((1-methyl-1H-imidazol-4-yl)methyl)piperidin-4-yl)-2-(4-(trifluoromethyl)benzyl)-2,3,4,5-tetrahydro-1H-pyrido[4,3-b]indole-8-carboxamide] | 10000 to 50000
O=C(NC1CCN(Cc2cocn2)CC1)c1ccc2[nH]c3c(c2c1)CN(Cc1ccc(C(F)(F)F)cc1)CC3 [Compound 2-54, N-(1-(oxazol-4-ylmethyl)piperidin-4-yl)-2-(4-(trifluoromethyl)benzyl)-2,3,4,5-tetrahydro-1H-pyrido[4,3-b]indole-8-carboxamide] | < 500

same assay, conditions: Table 10, compounds of Table 3

EC50 [nM] | Compound
100 to 1000 | O=C(c1nc2ccc(OC3CCN(c4ccc(C(F)(F)F)cc4)CC3)cc2o1)N1CC2CC1CN2Cc1ccncc1 (stereo not drawn) [Compound 3-8, (5-(pyridin-4-ylmethyl)-2,5-diazabicyclo[2.2.1]heptan-2-yl)(6-(1-(4-(trifluoromethyl)phenyl)piperidin-4-yloxy)benzo[d]oxazol-2-yl)methanone]
100 to 1000 | NC(=O)c1ccc(CN2CC3CC2CN3C(=O)c2nc3ccc(OC4CCN(c5ccc(C(F)(F)F)cc5)CC4)cc3o2)cc1 (stereo not drawn) [Compound 3-9, 4-((5-(6-(1-(4-(trifluoromethyl)phenyl)piperidin-4-yloxy)benzo[d]oxazole-2-carbonyl)-2,5-diazabicyclo[2.2.1]heptan-2-yl)methyl)benzamide]
100 to 1000 | N#Cc1ccc(CN2CC3CC2CN3C(=O)c2nc3ccc(OC4CCN(c5ccc(C(F)(F)F)cc5)CC4)cc3o2)cc1 (stereo not drawn) [Compound 3-10, 4-((5-(6-(1-(4-(trifluoromethyl)phenyl)piperidin-4-yloxy)benzo[d]oxazole-2-carbonyl)-2,5-diazabicyclo[2.2.1]heptan-2-yl)methyl)benzonitrile]
100 to 1000 | O=C(c1ccncc1)N1CC2CC1CN2C(=O)c1nc2ccc(OC3CCN(c4ccc(C(F)(F)F)cc4)CC3)cc2o1 (stereo not drawn) [Compound 3-11, (5-isonicotinoyl-2,5-diazabicyclo[2.2.1]heptan-2-yl)(6-(1-(4-(trifluoromethyl)phenyl)piperidin-4-yloxy)benzo[d]oxazol-2-yl)methanone]
< 100 | N#Cc1ccc(C(=O)N2CC3CC2CN3C(=O)c2nc3ccc(OC4CCN(c5ccc(C(F)(F)F)cc5)CC4)cc3o2)cc1 (stereo not drawn) [Compound 3-12, 4-(5-(6-(1-(4-(trifluoromethyl)phenyl)piperidin-4-yloxy)benzo[d]oxazole-2-carbonyl)-2,5-diazabicyclo[2.2.1]heptane-2-carbonyl)benzonitrile]
< 100 | O=C(c1ccc(F)cc1)N1CC2CC1CN2C(=O)c1nc2ccc(OC3CCN(c4ccc(C(F)(F)F)cc4)CC3)cc2o1 (stereo not drawn) [Compound 3-13, (5-(4-fluorobenzoyl)-2,5-diazabicyclo[2.2.1]heptan-2-yl)(6-(1-(4-(trifluoromethyl)phenyl)piperidin-4-yloxy)benzo[d]oxazol-2-yl)methanone]
1000 to 10000 | CC(C)(C)OC(=O)N1CCC(NC(=O)c2nc3ccc(OC4CCN(c5ccc(C(F)(F)F)cc5)CC4)cc3s2)CC1 [Compound 3-14, tert-butyl 4-(6-(1-(4-(trifluoromethyl)phenyl)piperidin-4-yloxy)benzo[d]thiazole-2-carboxamido)piperidine-1-carboxylate]
100 to 1000 | O=C(NC1CCN(Cc2ccncc2)CC1)c1nc2ccc(OC3CCN(c4ccc(C(F)(F)F)cc4)CC3)cc2s1 [Compound 3-15, N-(1-(pyridin-4-ylmethyl)piperidin-4-yl)-6-(1-(4-(trifluoromethyl)phenyl)piperidin-4-yloxy)benzo[d]thiazole-2-carboxamide]
100 to 1000 | N#Cc1ccc(CN2CCC(NC(=O)c3nc4ccc(OC5CCN(c6ccc(C(F)(F)F)cc6)CC5)cc4s3)CC2)cc1 [Compound 3-16, N-(1-(4-cyanobenzyl)piperidin-4-yl)-6-(1-(4-(trifluoromethyl)phenyl)piperidin-4-yloxy)benzo[d]thiazole-2-carboxamide]
< 100 | O=C(NC1CCN(Cc2ccncc2)CC1)c1cn2ccc(OC3CCN(c4ccc(C(F)(F)F)cc4)CC3)cc2n1 [Compound 3-17, N-(1-(pyridin-4-ylmethyl)piperidin-4-yl)-7-(1-(4-(trifluoromethyl)phenyl)piperidin-4-yloxy)imidazo[1,2-a]pyridine-2-carboxamide]
< 100 | N#Cc1ccc(CN2CCC(NC(=O)c3cn4ccc(OC5CCN(c6ccc(C(F)(F)F)cc6)CC5)cc4n3)CC2)cc1 [Compound 3-18, N-(1-(4-cyanobenzyl)piperidin-4-yl)-7-(1-(4-(trifluoromethyl)phenyl)piperidin-4-yloxy)imidazo[1,2-a]pyridine-2-carboxamide]
1000 to 10000 | CC(C)(C)OC(=O)N1CCC(NC(=O)c2cnc(OC3CCN(c4ccc(C(F)(F)F)cc4)CC3)cn2)CC1 [Compound 3-19, tert-butyl 4-(5-(1-(4-(trifluoromethyl)phenyl)piperidin-4-yloxy)pyrazine-2-carboxamido)piperidine-1-carboxylate]
< 100 | O=C(NC1CCN(Cc2ccncc2)CC1)c1cnc(OC2CCN(c3ccc(C(F)(F)F)cc3)CC2)cn1 [Compound 3-21, N-(1-(pyridin-4-ylmethyl)piperidin-4-yl)-5-(1-(4-(trifluoromethyl)phenyl)piperidin-4-yloxy)pyrazine-2-carboxamide]
< 100 | N#Cc1ccc(CN2CCC(NC(=O)c3cnc(OC4CCN(c5ccc(C(F)(F)F)cc5)CC4)cn3)CC2)cc1 [Compound 3-22, N-(1-(4-cyanobenzyl)piperidin-4-yl)-5-(1-(4-(trifluoromethyl)phenyl)piperidin-4-yloxy)pyrazine-2-carboxamide]
< 100 | N#Cc1ccc(CN2CCC(NC(=O)c3cnc(OC4CCN(c5ccc(C(F)(F)F)cc5)CC4)s3)CC2)cc1 [Compound 3-23, N-(1-(4-cyanobenzyl)piperidin-4-yl)-2-(1-(4-(trifluoromethyl)phenyl)piperidin-4-yloxy)thiazole-5-carboxamide]
< 100 | N#Cc1ccc(CN2CCC(NC(=O)c3cnc(OC4CCN(c5ccc(C#N)cc5)CC4)s3)CC2)cc1 [Compound 3-24, N-(1-(4-cyanobenzyl)piperidin-4-yl)-2-(1-(4-cyanophenyl)piperidin-4-yloxy)thiazole-5-carboxamide]
< 100 | N#Cc1ccc(CN2CCC(NC(=O)c3cnc(OC4CCN(Cc5ccc(C(F)(F)F)cc5)CC4)s3)CC2)cc1 [Compound 3-25, N-(1-(4-cyanobenzyl)piperidin-4-yl)-2-(1-(4-(trifluoromethyl)benzyl)piperidin-4-yloxy)thiazole-5-carboxamide]
1000 to 10000 | CC(C)(C)OC(=O)N1CCC(Oc2ncc(C(=O)NC3CCN(Cc4ccc(C#N)cc4)CC3)s2)CC1 [Compound 3-26, tert-butyl 4-(5-(1-(4-cyanobenzyl)piperidin-4-ylcarbamoyl)thiazol-2-yloxy)piperidine-1-carboxylate]

Further lines, the molecule ahead of its results:

Compound | EC50 [nM]
CC(C)(C)OC(=O)N1CCC(NC(=O)c2nc3ccc(OC4CCN(c5ccc(C(F)(F)F)cc5)CC4)cc3o2)CC1 [Compound 3-1, tert-butyl 4-(6-(1-(4-(trifluoromethyl)phenyl)piperidin-4-yloxy)benzo[d]oxazole-2-carboxamido)piperidine-1-carboxylate] | < 100
N#Cc1ccc(CN2CCC(NC(=O)c3nc4ccc(OC5CCN(c6ccc(C(F)(F)F)cc6)CC5)cc4o3)CC2)cc1 [Compound 3-2, N-(1-(4-cyanobenzyl)piperidin-4-yl)-6-(1-(4-(trifluoromethyl)phenyl)piperidin-4-yloxy)benzo[d]oxazole-2-carboxamide] | < 100
O=C(NC1CCN(Cc2ccncc2)CC1)c1nc2ccc(OC3CCN(c4ccc(C(F)(F)F)cc4)CC3)cc2o1 [Compound 3-3, N-(1-(pyridin-4-ylmethyl)piperidin-4-yl)-6-(1-(4-(trifluoromethyl)phenyl)piperidin-4-yloxy)benzo[d]oxazole-2-carboxamide] | < 100
O=C(NC1CCN(C(=O)c2ccc(F)cc2)CC1)c1nc2ccc(OC3CCN(c4ccc(C(F)(F)F)cc4)CC3)cc2o1 [Compound 3-4, N-(1-(4-fluorobenzoyl)piperidin-4-yl)-6-(1-(4-(trifluoromethyl)phenyl)piperidin-4-yloxy)benzo[d]oxazole-2-carboxamide] | < 100
O=C(NC1CCNCC1)c1nc2ccc(OC3CCN(c4ccc(C(F)(F)F)cc4)CC3)cc2o1 [Compound 3-5, N-(piperidin-4-yl)-6-(1-(4-(trifluoromethyl)phenyl)piperidin-4-yloxy)benzo[d]oxazole-2-carboxamide] | 10000 to 100000
N#Cc1ccc(C(=O)N2CCC(NC(=O)c3nc4ccc(OC5CCN(c6ccc(C(F)(F)F)cc6)CC5)cc4o3)CC2)cc1 [Compound 3-6, N-(1-(4-cyanobenzoyl)piperidin-4-yl)-6-(1-(4-(trifluoromethyl)phenyl)piperidin-4-yloxy)benzo[d]oxazole-2-carboxamide] | < 100
